Literature values, collected in US8883408B2, “Tissue implants for implantation and methods of preparing the same” (CryoLife, Inc., priority 2010, dated 2014).

Tested on: sensitive bacteria
Conditions: literature review

For `NCC[C@H](O)C(=O)N[C@@H]1C[C@H](N)[C@@H](O[C@H]2O[C@H](CN)[C@@H](O)[C@H](O)[C@H]2O)[C@H](O)[C@H]1O[C@H]1O[C@H](CO)[C@@H](O)[C@H](N)[C@H]1O` [amikacin], the “minimum inhibitory concentration against sensitive bacteria (MIC) range” value is given as 0.125 to 32 µg/mL.
